Test results as given in US4045564A, “Benzimidazole derivatives useful as gastric acid secretion inhibitors” (AB Hassle, priority 1974, dated 1977).

Tests used:
[1] = tested on: pentagastrin induced gastric acid secretion; assay: Inhibition of pentagastrin induced gastric acid secretion in acute dog experiments with a modified perfusion technique (anaesthetized dog); format: in vivo; settings: 10 mg/kg body weight, given into the duodenum in 0.5% Methocel suspension, pentagastrin 1-2 μg/kg
Procedure: The testing was performed in acute dog experiments with a modified perfusion technique.
The stomach of the anaesthetized dog was provided with one tube through the oesophagus for instillation of fluid and another tube via the ligated pylorus through duodenum for drainage of fluid. Saline was instilled in a volume of 5 ml/kg body weight, and the instillation fluid was changed every 15 minutes.
The samples collected were titrated to pH 7.0 with 0.04 N NaOH using a Radiometer automatic titrator, and the acid output per 15 minutes was calculated (collection periods).
Gastric acid secretion was induced by pentagastrin in 1-2 μg/kg.
The amount of active agent administered was 10 mg/kg body weight.

[2] = tested on: gastric acid secretion induced with pentagastrin; assay: Duration of the effect in conscious dog provided with a ventricel fistula, gastric acid secretion induced with pentagastrin; format: in vivo
Procedure: The compounds of Examples 1, 3, and 9 have also been tested with regard to the duration of the effect obtained in conscious dog provided with a ventricel fistula, the gastric acid secretion being induced with pentagastrin. The amount of gastric acid secreted before the administration of active agent was determined using a titrator, whereupon the gastric acid secretion was determined using a titrator after administration. In the table below the inhibition in % of basic secretion has been given for two different dose levels.

Row | SMILES | % inhibition of the pentagastrin induced gastric acid secretion [1] | % inhibition of gastric acid secretion ([2]; 1 mg/kg, 1 hr) | % inhibition of gastric acid secretion ([2]; 1 mg/kg, 2 hrs) | % inhibition of gastric acid secretion ([2]; 1 mg/kg, 3 hrs) | % inhibition of gastric acid secretion ([2]; 2 mg/kg, 1 hr) | % inhibition of gastric acid secretion ([2]; 2 mg/kg, 2 hrs) | % inhibition of gastric acid secretion ([2]; 2 mg/kg, 3 hrs)
1 | Cc1cccc2[nH]c(SCc3ccccn3)nc12 [Example 1, [2-pyridylmethylthio]-4-methyl-2-benzimidazole] | 89% | 20% | 25% | 25% | 50% | 60% | 65%
2 | CCc1ccc2nc(SCc3ccccn3)[nH]c2c1 [Example 3, 2-[2-pyridylmethylthio]-(5-ethyl)-benzimidazole] | 86% | 20% | 25% | 25% | 50% | 60% | 65%
3 | COc1ccc2[nH]c(SCc3ccccn3)nc2c1 [Example 5] | 40% | – | – | – | – | – | –
4 | CCOC(=O)c1ccc2[nH]c(SCc3ccccn3)nc2c1 [Example 9] | 70% | 20% | 25% | 25% | 50% | 60% | 65%
5 | CC(=O)n1c(SCc2ccccn2)nc2ccccc21 [Example 16, 2-[2-pyridylmethylthio]-N-acetylbenzimidazole] | 80% | – | – | – | – | – | –
6 | COC(=O)n1c(SCc2ccccn2)nc2ccccc21 [Example 17, 2-[2-pyridylmethylthio]-N-methoxycarbonylbenzimidazole] | 76% | – | – | – | – | – | –
